# Read-outs that look alike come from different tables or passages of the source.
# Target: Rhesus PDE2A3 (Macaca mulatta, UniProt B3VTJ2)
# Experiment: PDE2 fluorescence polarization (IMAP FP) inhibition assay, rhesus enzyme
# Assay type: biochemical, rhesus macaque
# Procedure, shortened: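 Rhesus PDE2A3 came from lysate of transiently transfected AD293 cells, diluted to give 20% substrate conversion. Substrate was 50 nM FAM-cAMP with 1 uM cGMP activator in Tris pH 7.2/MgCl2 buffer, run 60 min at room temperature over 10-point 3-fold dilutions in 1% DMSO. Read-out was IMAP fluorescence polarization (mP) after ≥1 h binding.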
# [1] = Rhesus PDE2, Lab A, read-out: Rhesus PDE2 Ki (nM) - Lab A
# [2] = Rhesus PDE2, Lab B, read-out: Rhesus PDE2 Ki (nM) - Lab B
# Rhesus PDE2A3, sequence (B3VTJ2 1-941): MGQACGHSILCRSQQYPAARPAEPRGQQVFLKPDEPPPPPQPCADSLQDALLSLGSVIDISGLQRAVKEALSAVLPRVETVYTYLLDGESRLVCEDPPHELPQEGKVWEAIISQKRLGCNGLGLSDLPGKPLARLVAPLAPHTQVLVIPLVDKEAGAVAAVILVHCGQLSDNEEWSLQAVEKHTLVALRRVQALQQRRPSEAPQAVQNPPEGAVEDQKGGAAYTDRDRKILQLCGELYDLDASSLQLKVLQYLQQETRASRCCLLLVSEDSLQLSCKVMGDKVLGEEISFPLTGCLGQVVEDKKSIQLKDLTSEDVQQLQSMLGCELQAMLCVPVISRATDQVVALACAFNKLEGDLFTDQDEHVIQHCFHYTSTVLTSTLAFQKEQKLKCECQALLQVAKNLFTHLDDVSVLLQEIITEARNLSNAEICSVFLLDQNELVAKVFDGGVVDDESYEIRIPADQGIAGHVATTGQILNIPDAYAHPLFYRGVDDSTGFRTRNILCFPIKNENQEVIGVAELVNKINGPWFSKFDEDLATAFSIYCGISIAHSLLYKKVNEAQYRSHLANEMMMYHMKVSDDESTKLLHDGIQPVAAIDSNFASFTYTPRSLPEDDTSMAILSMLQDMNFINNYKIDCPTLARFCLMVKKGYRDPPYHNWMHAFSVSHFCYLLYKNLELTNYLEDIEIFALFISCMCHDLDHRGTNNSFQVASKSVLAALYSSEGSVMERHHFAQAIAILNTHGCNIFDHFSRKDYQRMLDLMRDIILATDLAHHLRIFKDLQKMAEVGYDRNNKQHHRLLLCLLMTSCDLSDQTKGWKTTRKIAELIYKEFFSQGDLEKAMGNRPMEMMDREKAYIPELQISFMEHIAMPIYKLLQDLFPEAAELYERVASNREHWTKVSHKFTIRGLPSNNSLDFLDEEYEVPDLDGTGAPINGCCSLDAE
SMILES,Ki [1] [nM],Ki [2] [nM],"Rhesus PDE2 % inh. at 1 uM - Lab A (Rhesus PDE2, Lab A, at 1 uM) [% inh.]"
"C[C@@H](NC(=O)c1cc(=O)[nH]c(-c2ccccc2)n1)c1ccc(O)cc1 [Example 339, N-[(1R)-1-(4-hydroxyphenyl)ethyl]-6-oxo-2-phenyl-1,6-dihydropyrimidine-4-carboxamide]",~417,653,–
"C[C@@H](NC(=O)c1cc(=O)[nH]c(-c2ccccc2)n1)c1ccccc1 [Example 342, 6-oxo-2-phenyl-N-[(1R)-1-phenylethyl]-1,6-dihydropyrimidine-4-carboxamide]",~605,963,–
"CC(NC(=O)c1cc(=O)[nH]c(-c2ccccc2)n1)c1ccc(F)cc1 (centres unmarked) [Example 343, N-[1-(4-fluorophenyl)ethyl]-6-oxo-2-phenyl-1,6-dihydropyrimidine-4-carboxamide]",~601,682,–
"CC(C)(NC(=O)c1cc(=O)[nH]c(-c2ccccc2)n1)c1ccc(F)c(F)c1 [Example 344, N-[1-(3,4-difluorophenyl)-1-methylethyl]-6-oxo-2-phenyl-1,6-dihydropyrimidine-4-carboxamide]",~449,681,–
"CN(Cc1ccc(C(F)(F)F)cc1)C(=O)c1cc(=O)[nH]c(-c2ccccc2)n1 [Example 345, N-methyl-6-oxo-2-phenyl-N-[4-(trifluoromethyl)benzyl]-1,6-dihydropyrimidine-4-carboxamide]",8340,–,–
"O=C(c1cc(=O)[nH]c(-c2ccccc2)n1)N1CCCCC1c1ccc(C(F)(F)F)cc1 (centres unmarked) [Example 346, 2-phenyl-6-({2-[4-(trifluoromethyl)phenyl]piperidin-1-yl}carbonyl)pyrimidin-4(3H)-one]",2350,–,–
"CC(C)c1ccc(CCNC(=O)c2cc(=O)[nH]c(-c3ccccc3)n2)cc1 [Example 348, N-{2-[4-(1-methylethyl)phenyl]ethyl}-6-oxo-2-phenyl-1,6-dihydropyrimidine-4-carboxamide]",~877,1500,–
"CC(C)(NC(=O)c1cc(=O)[nH]c(-c2ccccc2)n1)c1ccc(F)cc1 [Example 349, N-[1-(4-fluorophenyl)-1-methylethyl]-6-oxo-2-phenyl-1,6-dihydropyrimidine-4-carboxamide]",~525,713,–
"C[C@@H](NC(=O)c1cc(=O)[nH]c(-c2ccccc2)n1)c1cccc2ccccc12 [Example 354, N-[(1R)-1-naphthalen-1-ylethyl]-6-oxo-2-phenyl-1,6-dihydropyrimidine-4-carboxamide]",> 1000,2800,42

# Now from value to compound:
Ki [1] [nM],Ki [2] [nM],"Rhesus PDE2 % inh. at 1 uM - Lab A (Rhesus PDE2, Lab A, at 1 uM) [% inh.]",SMILES
1490,–,–,"Cc1cc(-c2ccc([C@@H](C)NC(=O)c3cc(=O)[nH]c(C)n3)cc2)ccn1 [Example 319, 2-methyl-N-{(1R)-1-[4-(2-methylpyridin-4-yl)phenyl]ethyl}-6-oxo-1,6-dihydropyrimidine-4-carboxamide]"
1700,–,–,"Cc1nc(C(=O)N[C@H](C)c2ccc(-c3cccnc3)cc2)cc(=O)[nH]1 [Example 320, 2-methyl-6-oxo-N-[(1R)-1-(4-pyridin-3-ylphenyl)ethyl]-1,6-dihydropyrimidine-4-carboxamide]"
911,–,–,"Cc1nc(C(=O)N[C@H](C)c2ccc(-c3ccc(C(F)(F)F)nc3)cc2)cc(=O)[nH]1 [Example 321, 2-methyl-6-oxo-N-[(1R)-1-{4-[6-(trifluoromethyl)pyridin-3-yl]phenyl}ethyl]-1,6-dihydropyrimidine-4-carboxamide]"
809,–,–,Cc1nc(C(=O)N[C@H](C)c2ccc([S+]([O-])C(F)(F)F)cc2)cc(=O)[nH]1 (some centres unmarked) [Example 330]
304,–,–,"Cc1nc(C(=O)N[C@H](C)c2ccc(S(=O)(=O)C(F)(F)F)cc2)cc(=O)[nH]1 [Example 331, 2-Methyl-6-oxo-N-[(1R)-1-{4-[(trifluoromethyl)sulfonyl]phenyl}ethyl]-1,6-dihydropyrimidine-4-carboxamide]"
–,~29200,–,"CCOC(=O)c1ccc([C@@H](C)NC(=O)c2cc(=O)[nH]c(-c3ccccc3)n2)cc1 [Example 355, ethyl 4-[(1R)-1-{[(6-oxo-2-phenyl-1,6-dihydropyrimidin-4-yl)carbonyl]amino}ethyl]benzoate]"
